{
  "source": "patent US9688709B2",
  "about": "“Phosphaplatins and their use for treatment of cancers” (OHIO UNIVERSITY, priority 2010, dated 2017)",
  "key": {"[1]": {"experiment": "Stability in aqueous solution at neutral pH (31P-NMR)", "type": "physicochemical", "source_text": "Typically, no decomposition is observed within seven days after dissolving the phosphaplatin compounds in water and observing by ^31P-NMR spectroscopy."}, "[2]": {"tested_on": "human ovarian cancer A2780 xenograft", "experiment": "In vivo efficacy, A2780 mouse xenograft", "parameters": "species or system mice", "description": "Stable clonal ovarian cancer cell lines A2780 were grown in cell culture until 80-90% confluency was reached. Trypsin (GIBCO/BRL, Grand Island, N.Y.) was used to detach adherent cells. Trypsinized cells were thoroughly washed with PBS (Phosphate Buffered Saline) to remove trypsin. Efficacy of phosphaplatin compounds were evaluated using human ovarian cancer, A2780 by subcutaneous xenograft in SCID Hairless OutBred, SHO-Prkdc^scidHr^hr, (Charles River Labs, Wilmington, Mass.) mice. Female SCID mice 4 to 5 weeks old were acclimated for one week before initiation of efficacy trials.\nCancer cells were re-suspended in PBS, and all mice except for negative control mice were injected subcutaneously with from 1×10^6 cells/0.10 mL to 5×10^6 cells/0.10 mL in PBS and were evaluated for tumors as a function of time using sterile 26 gauge needles and syringes. The mice were examined daily for tumor growth. Tumors were measured using digital calipers. The tumor volume was calculated by the formula (W^2×L)/2, where W is the tumor measurement at the widest point, and L is the tumor dimension at the longest point, where the volume of the tumor in mm^3 is equivalent to the weight in mg. […]\nThe xenograft SCID mice were monitored every day for any adverse events in their health by measuring weight loss/gain and food consumption. […]"}, "[3]": {"tested_on": "human ovarian cancer OVCAR-10 xenograft", "experiment": "In vivo efficacy, OVCAR-10 mouse xenograft", "parameters": "species or system mice", "conditions": "40 mg/kg body weight, during the treatment time", "description": "Stable human clonal ovarian cancer cell lines OVCAR-10 and head and neck cancer UMSCC10b were grown separately in cell culture until 80-90% confluency was reached. Trypsin (GIBCO/BRL, Grand Island, N.Y.) was used to detach adherent cells. Trypsinized cells were thoroughly washed with PBS (Phosphate Buffered Saline) to remove trypsin. Efficacy of phosphaplatin compounds were evaluated by subcutaneously implanting human OVCAR-10 and UMSCC-10b xenograft in SCID Hairless OutBred, SHO-Prkdc^scidHr^hr, (Charles River Labs, Wilmington, Mass.) mice, NIH (NIH III: NIHBNX-F; NIHS-Lystbg Foxnlnu Btkxid, 4-week old female, Taconic (Rensselaer, N.Y.) mice.\nFemale SCID/NIH mice 4-5 weeks old were acclimated for one week before initiation of efficacy trials. Cancer cells were re-suspended in PBS and all mice except for negative control mice were injected subcutaneously with from 1×10^6 cells/0.10 mL to 5×10^6 cells/0.10 mL in PBS. The tumor size was evaluated as a function of time. The mice were examined daily for tumor growth. Tumors were measured using digital calipers. The tumor volume was calculated by the formula (W^2×L)/2, where W is the tumor measurement at the widest point, and L is the tumor dimension at the longest point, where the volume of the tumor in mm^3 is equivalent to the weight in mg.\nAfter approximately 2 weeks of the subcutaneous injection of cancer cells, the tumors that had reached a distinguishable tumor sizes (approximately 100 mm^3 to 200 mm^3), phosphaplatin compounds of desired doses were administered intra-peritoneally. These administrations were done one time on day 1, once on day 3, and once on day 5.\nEach group of xenograft mice was treated with phosphaplatin compounds, and a matched set was treated with vehicle/placebo (PBS solution) and mock injection (as a control for stress response). […] The xenograft SCID mice/NIH were monitored every day for any adverse events in their health by measuring weight loss/gain and food consumption. Measurements were stopped and the study was ended when the tumor size exceeded 3000 mm^3. […]"}},
  "note": "Where two headings read alike, the source gives them in different places.",
  "data": [
    {"smiles": "O=P1(O)OP(=O)(O)[O][Pt]2([OH])([OH])([NH][C@@H]3CCCC[C@H]3[NH]2)[O]1", "note": "[(1R,2R)-pyrodach-4, ((1R,2R)-1,2-cyclohexanediamine)-trans-dihydroxo(dihydrogenpyrophosphato)platinum (IV)]", "values": [
      {"measurement": "stability at neutral pH in aqueous solution", "setting": "[1]", "value": "remarkable stability"},
      {"measurement": "tumor response", "setting": "[2]; 10 mg/kg qodx3, first ten days of treatment", "value": "tumor regression"},
      {"measurement": "tumor response", "setting": "[3]", "value": "tumor regression"}
    ]},
    {"smiles": "O=P1(O)OP(=O)(O)[O][Pt]2([NH][C@@H]3CCCC[C@H]3[NH]2)[O]1", "note": "(stereo partly drawn) [(1R,2R)-pyrodach-2, ((1R,2R)-1,2-cyclohexanediamine)(dihydrogenpyrophosphato)platinum (II)]", "values": [
      {"measurement": "stability at neutral pH in aqueous solution", "setting": "[1]; dissolved in water, observed by 31P-NMR, seven days", "value": "remarkable stability"},
      {"measurement": "tumor response", "setting": "[2]; 40 mg/kg qodx3, first ten days of treatment", "value": "tumor regression"},
      {"measurement": "tumor response", "setting": "[3]", "value": "tumor regression"}
    ]}
  ]
}
